The values that follow come from US9663448B2, “Tri-aryl compounds and compositions comprising the same” (BEN-GURION UNIVERSITY OF THE NEGEV RESEARCH AND DEVELOPMENT …, priority 2007, dated 2017).

The data set is described as follows: Solubility noted at work-up of the synthesis. The class given is physicochemical. As to conditions: qualitative remark. Here is the method:
1,1,1-tris(4-hydroxyphenyl)ethane (1.53 gr, 5 mM), formaldehyde (1.35 gr, 45 mM) and 1-methyl piperazine (2.5 ml, 50 mM) in 20 ml water and 25 ml EtOH were refluxed for 3 hours. Evaporation provided a solid that by TLC and NMR contained 2 products, which was not the starting material. Formaldehyde (0.75 gr, 25 mM) and 1-methyl piperazine (1.5 ml, 30 mM) were added to 5 ml water and 10 ml EtOH and the reaction was refluxed for 4 hours. Evaporation and workup gave 3.3 gr light yellow-white solid, 67% yield, mp. […].

Molecules are shown by their SMILES.

Consider `CN1CCN(Cc2cc(C(C)(c3cc(CN4CCN(C)CC4)c(O)c(CN4CCN(C)CC4)c3)c3cc(CN4CCN(C)CC4)c(O)c(CN4CCN(C)CC4)c3)cc(CN3CCN(C)CC3)c2O)CC1` [VIII], for which the solubility in ethanol result (solvent ethanol) is on record as “Soluble”. Also, the solubility in water result (solvent water) is given as “very good solubility”.
